≈ marks a conversion by molar mass, not a printed value. Like-named read-outs stand apart in the source and are kept apart here.
Key:
[1] = Antifungal activity on paper (CNS 2690, TAPPI T487 cm-93); details: C. globosum, 14 days
[2] = Antifungal assay, mycelium growth on PDA containing the chemical; details: G. trabeum
[3] = as above; details: A. taxa; for Antifungal index (%): Table 2
[4] = as above; details: F. pinicola; for Antifungal index (%): Table 2
[5] = Antifungal assay, mycelium growth on PDA (fungi); details: soft rot, Cu tolerant, and brown rot fungi
[6] = Antifungal assay, mycelium growth on PDA containing the chemical; details: P. placenta; for Antifungal index (%): Table 2
[7] = Antifungal activity on paper (CNS 2690, TAPPI T487 cm-93); details: A. niger, 14 days
[8] = as above; details: A. terreus, 14 days
[9] = Antifungal assay, mycelium growth on PDA containing the chemical; details: C. globosum; for Antifungal index (%): Table 2
[10] = Antifungal assay, mycelium growth on PDA (fungi)
[11] = Antifungal assay, mycelium growth on PDA containing the chemical; details: S. commune; for Antifungal index (%): Table 2
[12] = as above; details: W. extensa; for Antifungal index (%): Table 2
[13] = Antifungal assay, mycelium growth on PDA (fungi); details: 100 μg/ml; W. extensa, P placenta, L. sulphureus, G. trabeum and F. pinicola
[14] = Antifungal assay, mycelium growth on PDA containing the chemical; details: L. betulina; for Antifungal index: Example 3, FIG. 2(A)
[15] = as above; details: T. versicolor
[16] = as above; details: L. sulphureus
[17] = 100 μg/cm^2 on filter paper, listed as octyl gallate
[18] = Example 1, FIG. 1(A), read-out: IC50 (concentration that inhibited 50% of the mycelium growth)
[19] = 400 μg/cm^2 on filter paper, listed as octyl gallate

CCCCCCCCOC(=O)c1cc(O)c(O)c(O)c1 [Octyl gallate, octyl gallate]
Percent inhibition ratio ([1]; 100 μg/cm^2 on filter paper): 100 ± 0%
Percent inhibition ratio [1, 17]: 100%
Percent inhibition ratio ([1]; 400 μg/cm^2 on filter paper): 100 ± 0%
Antifungal index ([2]; 25 μg/ml, Example 3, FIG. 2(B)): 30%
Antifungal index (%) ([2]; 50 μg/ml, Table 2): 49%
Antifungal index (%) ([2]; 100 μg/ml, Table 1): 85 ± 26.2%
Antifungal index (%) ([2]; 100 μg/ml, Table 2): 77%
Antifungal index (%) ([2]; 200 μg/ml, Table 2): 93%
IC50 [2, 18]: 240 µM
IC50 value ([2]; Table 3): 50.8 µg/mL (≈ 180 µM)
Antifungal index (%) ([3]; 25 μg/ml): 73%
Antifungal index (%) ([3]; 50 μg/ml): 100%
Antifungal index (%) ([3]; 200 μg/ml): 100%
IC50 value ([3]; Table 3): <25 µg/mL
Antifungal index (%) ([4]; 25 μg/ml): 52%
Antifungal index (%) ([4]; 50 μg/ml): 78%
Antifungal index (%) ([4]; 100 μg/ml): 94%
Antifungal index (%) ([4]; 200 μg/ml): 100%
IC50 value ([4]; Table 3): <25 µg/mL
IC50 value [5]: less than 50 μg/ml
Antifungal index (%) ([6]; 25 μg/ml): 58%
Antifungal index (%) ([6]; 50 μg/ml): 75%
Antifungal index (%) ([6]; 100 μg/ml): 82%
Antifungal index (%) ([6]; 200 μg/ml): 84%
IC50 value ([6]; Table 3): <25 µg/mL
Percent inhibition ratio ([7]; 100 μg/cm^2 on filter paper): 72 ± 7.6%
Percent inhibition ratio [7, 17]: 72%
Percent inhibition ratio ([7]; 400 μg/cm^2 on filter paper): 99 ± 1.0%
Percent inhibition ratio [7, 19]: 99%
Percent inhibition ratio ([8]; 100 μg/cm^2 on filter paper): 51 ± 4.6%
Percent inhibition ratio [8, 17]: 51%
Percent inhibition ratio ([8]; 400 μg/cm^2 on filter paper): 94 ± 8.5%
Percent inhibition ratio [8, 19]: 94%
Antifungal index (%) ([9]; 25 μg/ml): 82%
Antifungal index (%) ([9]; 50 μg/ml): 100%
Antifungal index (%) ([9]; 200 μg/ml): 100%
IC50 value ([9]; Table 3): <25 µg/mL
inhibition (antifungal index), span over three fungi ([10]; 100 μg/ml, L. betulina, T versicolor and S. commune): 41˜69%
IC50 value ([10]; white rot fungi): less than 200 μg/ml
Antifungal index (%) ([11]; 25 μg/ml): 16%
Antifungal index (%) ([11]; 50 μg/ml): 40%
Antifungal index (%) ([11]; 100 μg/ml): 60%
Antifungal index (%) ([11]; 200 μg/ml): 83%
IC50 value ([11]; Table 3): 114 µg/mL (≈ 404 µM)
Antifungal index (%) ([12]; 25 μg/ml): 3%
Antifungal index (%) ([12]; 50 μg/ml): 50%
Antifungal index (%) ([12]; 100 μg/ml): 75%
Antifungal index (%) ([12]; 200 μg/ml): 64%
IC50 value ([12]; Table 3): 50 µg/mL (≈ 177 µM)
inhibition (antifungal index), span over five fungi [13]: 75˜96%
Antifungal index ([14]; 25 μg/ml): 16%
Antifungal index (%) ([14]; 25 μg/ml, Table 2): 16%
Antifungal index (%) ([14]; 50 μg/ml, Table 2): 28%
Antifungal index ([14]; 100 μg/ml): 42%
Antifungal index (%) ([14]; 100 μg/ml, Table 1): 43 ± 2.5%
Antifungal index (%) ([14]; 100 μg/ml, Table 2): 41%
Antifungal index (%) ([14]; 200 μg/ml, Table 2): 88%
IC50 [14, 18]: 470 µM
IC50 value ([14]; Table 3): 137.6 µg/mL (≈ 487 µM)
Antifungal index (%) ([15]; 25 μg/ml, Table 2): 37%
Antifungal index (%) ([15]; 50 μg/ml, Table 2): 50%
Antifungal index (%) ([15]; 100 μg/ml, Table 1): 69 ± 9.1%
Antifungal index (%) ([15]; 100 μg/ml, Table 2): 69%
Antifungal index (%) ([15]; 200 μg/ml, Table 2): 85%
IC50 [15, 18]: 160 µM
IC50 value ([15]; Table 3): 173 µg/mL (≈ 613 µM)
Antifungal index (%) ([16]; 50 μg/ml, Table 2): 85%
Antifungal index (%) ([16]; 100 μg/ml, Table 1): 100 ± 0%
Antifungal index (%) ([16]; 100 μg/ml, Table 2): 96%
Antifungal index (%) ([16]; 200 μg/ml, Table 2): 100%
IC50 [16, 18]: 40 µM
IC50 value ([16]; Table 3): 50.6 µg/mL (≈ 179 µM)
